# “Also recorded” adds a separate entry of the source.
# How the values were obtained:
# [1] = biological target: T1, fibrin (acellular clot phantoms) (Homo sapiens, UniProt P02671+P02675+P02679); experiment: Binding of 99mTc monomeric construct to acellular clot phantoms (Scatchard plot)
# T1 construct: 100 μL of human plasma was quickly mixed with 3 unit of thrombin solution; from tissue; host or cells: human plasma clotted with thrombin
# T1 sequence (P02671 20-644 isoform P02671-2 limits assumed): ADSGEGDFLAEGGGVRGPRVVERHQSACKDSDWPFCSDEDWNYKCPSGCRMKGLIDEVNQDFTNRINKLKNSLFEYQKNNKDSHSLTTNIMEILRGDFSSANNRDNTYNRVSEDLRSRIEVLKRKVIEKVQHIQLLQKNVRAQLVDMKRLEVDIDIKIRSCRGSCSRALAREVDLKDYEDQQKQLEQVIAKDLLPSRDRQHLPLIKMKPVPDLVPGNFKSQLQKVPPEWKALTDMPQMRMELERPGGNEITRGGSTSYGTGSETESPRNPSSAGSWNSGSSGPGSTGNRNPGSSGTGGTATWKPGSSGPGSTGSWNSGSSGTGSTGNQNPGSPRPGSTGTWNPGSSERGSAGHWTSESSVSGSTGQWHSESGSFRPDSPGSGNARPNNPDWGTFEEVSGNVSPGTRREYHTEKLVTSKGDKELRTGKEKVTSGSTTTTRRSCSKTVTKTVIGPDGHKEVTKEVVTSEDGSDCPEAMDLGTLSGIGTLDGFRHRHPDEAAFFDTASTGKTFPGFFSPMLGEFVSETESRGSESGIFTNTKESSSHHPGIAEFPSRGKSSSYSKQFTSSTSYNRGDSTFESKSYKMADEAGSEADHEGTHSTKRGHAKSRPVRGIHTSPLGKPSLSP
# T1 sequence (P02675 45-491 limits assumed): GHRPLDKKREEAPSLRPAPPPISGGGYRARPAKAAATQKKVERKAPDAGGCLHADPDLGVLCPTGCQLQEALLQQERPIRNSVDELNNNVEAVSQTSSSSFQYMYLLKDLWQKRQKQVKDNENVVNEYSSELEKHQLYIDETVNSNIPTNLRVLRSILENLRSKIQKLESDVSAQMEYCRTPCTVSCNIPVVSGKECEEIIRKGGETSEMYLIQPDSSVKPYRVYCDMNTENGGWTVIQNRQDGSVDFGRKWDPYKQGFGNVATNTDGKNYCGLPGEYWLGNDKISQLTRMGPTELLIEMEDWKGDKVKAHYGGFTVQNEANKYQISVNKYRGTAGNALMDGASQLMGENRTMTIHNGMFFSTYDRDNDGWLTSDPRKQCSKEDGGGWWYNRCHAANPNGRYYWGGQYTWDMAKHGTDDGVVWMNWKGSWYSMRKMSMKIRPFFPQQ
# T1 sequence (P02679 27-437 isoform P02679-2 limits assumed): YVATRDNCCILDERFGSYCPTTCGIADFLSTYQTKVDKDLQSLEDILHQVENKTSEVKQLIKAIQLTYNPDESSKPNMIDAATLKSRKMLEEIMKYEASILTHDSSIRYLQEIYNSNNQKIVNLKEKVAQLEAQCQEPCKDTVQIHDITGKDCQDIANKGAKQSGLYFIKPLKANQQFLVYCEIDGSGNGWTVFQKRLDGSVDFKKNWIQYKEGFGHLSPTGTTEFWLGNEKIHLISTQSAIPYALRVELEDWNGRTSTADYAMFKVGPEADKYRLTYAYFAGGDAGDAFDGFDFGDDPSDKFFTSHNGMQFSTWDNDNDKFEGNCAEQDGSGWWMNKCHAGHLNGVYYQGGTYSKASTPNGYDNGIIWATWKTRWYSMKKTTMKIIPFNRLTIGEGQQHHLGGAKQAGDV
# Procedure: Clot phantoms were generated using a typical procedure wherein 100 μL of human plasma was quickly mixed with 3 unit of thrombin solution. The resulting solution was then transferred into a plastic cylinder tube. Once clots were formed, they were placed each in 4 mL 0.1 M PBS buffer, pH7.0 solution.
# The fibrin-binding monomer construct labeled with ^99mTc (10 mCi/350 μg) was prepared and analyzed by TLC as described in the examples above. The construct was diluted to generate a dilution series comprising 1, 5, 10, 15, 25, and 30 μg peptide construct in a total volume of 0.5 mL 0.1 M PBS at pH 7.4.
# The monomeric construct was then combined with clot phantoms and incubated for 30 min at 37° C. in a water bath. Clot phantoms were separated from the solution by centrifugation device, and radioactivity was measured in the clot and the supernatant using a calibrated dosimeter. The experiment was repeated for three times and data were analyzed by Scatchard plot and regression analysis (FIG. 3). […] The dissociation constant (Kd) and the number of binding sites per clot were also determined.
# [2] = biological target: T2, fibrin clot (Homo sapiens, UniProt P02671+P02675+P02679); experiment: Plasma interference on fibrin clot binding (50:50 plasma:PBS)
# T2 construct: admixing 100 μl of fresh human plasma with 3 units thrombin (Sigma Chemical); from tissue; host or cells: fresh human plasma clotted with thrombin (Sigma Chemical)
# T2 sequence (P02671 20-644 isoform P02671-2 limits assumed): T1 sequence (P02671 20-644 isoform P02671-2 limits assumed)
# T2 sequence (P02675 45-491 limits assumed): T1 sequence (P02675 45-491 limits assumed)
# T2 sequence (P02679 27-437 isoform P02679-2 limits assumed): T1 sequence (P02679 27-437 isoform P02679-2 limits assumed)
# Procedure: (§1) Acellular fibrin clot assays of probe affinity, radiolabel stability, and plasma interference: Acellular fibrin clots were used: 1) to characterize the binding affinity of ^99mTc-F1A and ^99mTc-F4A, 2) to assess the stability of ^99mTc chelation, and 3) to evaluate the extent of plasma interference of fibrin binding. Specifically, uniform clots were produced by quickly admixing 100 μl of fresh human plasma with 3 units thrombin (Sigma Chemical). The mixture was pipetted into uniform cylindrical plastic tubes. Once formed, clots were washed repeatedly in 0.1 M PBS buffer (pH 7.0) then stored in same until use at 4° C.
# Assessment of ^99mTc-F1A and ^99mTc-F4A radiolabel stability and plasma interference: Radiolabeled F1A and F4A were bound to clots in the presence of marked excess cysteine to evaluate the stability of the ^99mTc label in triplicate.^49 99mTc-F1A or ^99mTc-F4A (20 μCi) supplemented with 0.1 M PBS pH 7.4 (total volume of 0.5 ml) were incubated with fibrin clot samples at 37° C. for 30 minutes. Similarly, the 0.1 M PBS buffer diluted 50% with fresh human plasma (total volume of 0.5 ml) was used to assess potential matrix interference on radiolabeled peptide binding in triplicate. In both instances, fibrin clots were separated from unbound radioactivity by repeated centrifugation, washed, then counted in a calibrated well counter (Wizard 3, Perkin Elmer).
# [3] = biological target: T2, fibrin clot; experiment: Fibrin binding affinity, acellular fibrin clot assay (Hill slope model); details: uniform fibrin clots in PBS, read-out: dissociation constant (Kd)
# Procedure: as §1
# Fibrin binding affinity: ^99mTc-F1A or ^99mTc-F4A (20 μCi) were incubated with the clot samples at 37° C. for 30 minutes with 1, 5, 10, 15, 25, and 30 μg cold monomer supplemented with 0.1 M PBS pH 7.4 to bring each test volume total to 0.5 ml. The fibrin clots were separated from unbound radioactivity by repeated centrifugation and washing then counted in a calibrated well counter (Wizard 3, Perkin Elmer). Results, adjusted for decay, were used to estimate dissociation constant (kd) using the Hill slope model, Y=Bmax*X^h/(Kd^h+X^h) (MatLab). Total fibrin concentration was estimated from plasma fibrinogen estimated to be 0.735 nmoles per clot.
# [4] = tested on: fibrin clots; experiment: Ex vivo LVAD flow study using a mock loop; type: binding; details: 10,000 RPM, 6 L/min, 2 minutes, 50:50 plasma:PBS, 0.5 mCi
# Procedure: The high shear (10,000 RPM) and high flow (6 L/min) of the LVAD, which is required to pump the entire circulating blood volume of the patient every minute, places severe demands on the binding affinity and clot retention of the nuclear probe. […] The ½″ plastic tubing circuit was filled with a 50:50 human plasma:PBS mixture (200 ml). Uniform fibrin clots were secured with a highly porous, thin gauze netting within a plastic ½″ chamber immediately proximal to the LVAD inlet secured. ^99mTc-F1A or ^99mTc-F4A were injected into the mock loop and allowed to target the clots at the full flux rate for 2 minutes.
# Ex vivo LVAD flow study using a mock loop: A LVAD (Heartmate II) driven by a computer-controlled console was inserted into a 200 ml mock flow loop comprised of ½″ plastic tubing interconnecting a PBS/Fresh Plasma (50:50) reservoir, an injection port, a media drainage port, and an inline ½″ plastic chamber. Uniform fibrin clots produced by mixing fibrinogen, thrombin, and calcium and aged 24 hours were secured within the inline chamber using a highly porous, single thread layer of cotton gauze. […] Radioactive circulating plasma/PBS was drained and replaced with PBS, which circulated for 2 minutes to remove unbound radioactivity. Clot radioactivity was counted in a calibrated gamma well counter and the results adjusted for decay.
# [5] = biological target: T1, fibrin (acellular clot phantoms); experiment: Clot phantom binding in presence of 50% serum (Example 5)
# Procedure: (§2) In a parallel experiment, binding of the fibrin-binding monomeric construct to acellular clot phantoms in the presence of excess cysteine, or in the presence of 50% serum was also tested. For excess cysteine conditions, 0.25 mg of cysteine in 0.5 mL PBS was also combined with the monomeric construct and clot phantoms. The experiment was conducted as described above, and incubated for 120 min at 37° C. in a water bath. […] Cys is used to test the stability of the metal on the agent, and binding of the agent without the metal would look like lower binding. Instability and loss of the metal in the presence of serum could have accounted for the lower binding of the monomeric peptide, but the metal was stable. […] Thus the peptide binding was interfered with by off-target association with something in serum, likely albumen. This was consistent with previous reports describing the serum binding of the monomeric fibrin-binding peptide.
# [6] = 99mTc label retention with excess cysteine, clot phantoms (Example 5); type: physicochemical; details: 0.25 mg cysteine in 0.5 mL PBS, 120 min, 37° C.
# Procedure: as §2
substance,measurement,setting,value
99mTc-labeled monomer: fibrin homing peptide QWECPYGLCWIQ linked through PEG2 spacer to technetium chelating sequence HHE [^99mTc-F1A],binding site per clot,[1],8.48E+14
same,binding site per mg,[1],1.21E+15
same,fibrin clot binding in 50:50 plasma:PBS versus PBS,[2],severely compromised; also recorded: dramatically reduced
same,Kd,[3],~10.2 µM
same,clot binding and retention in LVAD mock loop,[4],very low signal level; also recorded: very close to background level counts
same,binding of labeled peptide to clot in presence of 50% serum,[5],greatly diminished
same,effect of excess cysteine on coupling of the 99mTc radiolabel,[6],did not impact the secure coupling

# Reference: patent US11052163B2, “Homing agents” (Washington University, priority 2013, dated 2021)
